Data reported in paper PMC9977887, “Crocodile defensin (CpoBD13) antifungal activity via pH-dependent phospholipid targeting and membrane disruption” (Nature Communications, 2023).
Where two headings read alike, the source gives them in different places.

Key:
C. albicans ATCC 10231 = test: Fungal growth inhibition assay; format: cell-based, Candida albicans; settings: 24 h; for IC50: unit not in table, µM, read-out: IC50
Description: For fungal growth assays, overnight cultures of C. albicans ATCC 10231 cells (yeast peptone dextrose broth, 30°C, shaking at 160 rpm) were pelleted (2000 g, 5 min), washed once in 0.5× potato dextrose broth (BD Biosciences, Franklin Lakes, NJ) and finally resuspended in the same media. Cells were seeded onto a 96-well plate (400 cells, 50 µL) and treated with an equal volume of varying concentrations of defensin in 0.5× potato dextrose broth. After incubating the samples (24 h, 30 °C), the plates were shaken to distribute the cells and growth was determined by performing a 9-well scan (600 nm) using a Spectramax M5e microplate reader (Molecular Devices, San Jose, CA). For assays testing defensin salt tolerance, C. albicans cells were instead resuspended in 1x potato dextrose broth and treated with an equal volume of CpoBD13 + NaCl solution at their intended concentrations. Propidium iodide (PI) uptake assays were performed by preparing the cells as per the standard growth inhibition assay however they were instead seeded onto a U-bottom 96-well plate (50,000 cells, 25 µL). […] For PI uptake experiments performed at a specific pH, the same method was followed with the exception that cells were resuspended in 1× potato dextrose broth while defensin titrations were diluted in 40 mM MES buffer at the intended pH. An example PI uptake gating strategy is presented in Supplementary Fig. 1d.

[1] = Calcein-encapsulated liposome lysis assay; format: biochemical
Description: (§1) Liposomes were prepared using natural chicken egg L-α-phophatidylcholine and L-α-phosphatidic acid dissolved in chloroform (Avanti Polar Lipids), and liposome pulldowns (at pH 7.4) and calcein-encapsulated liposome lysis assays were performed as previously described. For liposome pulldowns performed at pH 5.5, the same protocol was used with minor variations. The desiccated lipid films were resuspended in 20 mM MES pH 7.4 and were washed in the same buffer during the centrifugation process. After the final wash step, the liposome pellets were resuspended in 20 mM MES pH 5.5 and incubated with CpoBD13 or mutants thereof (also prepared in the same acidic buffer).

Liposome pulldown = format: binding; settings: 1 µg defensin; for Fraction of total protein (%), bound fraction: pH 5.5 (20 mM MES); for Fraction of total protein (%), Bound: pH 7.4
Description: as §1

[2] = molecular target: PC:PA liposomes (95:5 molar ratio PC:PA); test: liposome pulldown; settings: 1 µg peptide, 95:5 molar ratio PC:PA, read off a plot
PC only liposomes = test: liposome pulldown; settings: 1 µg peptide, PC only, read off a plot
[3] = molecular target: the molecule itself; test: cross-linking; BS(PEG)5 cross-linker; CpoBD13 (1 mg/mL stock) with 0 or 23 µM phosphatidic acid (08:0 PA; 0 or 0.092 mM stock), 20 mM HEPES pH 7.1, 30 min; SDS-PAGE and colloidal Coomassie
[4] = molecular target: the molecule itself; test: cross-linking; BS(PEG)5 cross-linker; CpoBD13 or mutant (1 mg/mL stock) with 115 µM phosphatidic acid (08:0 PA; 0.46 mM stock), 20 mM HEPES pH 7.1, 30 min; SDS-PAGE and colloidal Coomassie
[5] = PC:PA 95:5 liposomes, replicate 1
[6] = PC:PA 95:5 liposomes, replicate 2
[7] = PC:PA 95:5 liposomes, replicate 3

CpoBD13 (H35A): CpoBD13 point mutant H35A
fungal growth inhibition activity compared to the wild type (C. albicans ATCC 10231; IC50 comparison, two-tailed unpaired t test): No significant differences
IC50 (C. albicans ATCC 10231; Replicate 1): 4.14 µM
IC50 (C. albicans ATCC 10231; Replicate 2): 4.17 µM
IC50 (C. albicans ATCC 10231; Replicate 3): 4.2 µM
Lysis (%) ([1]; PC liposomes, replicate 1): 59.2077%
Lysis (%) ([1]; PC liposomes, replicate 2): 47.882%
Lysis (%) ([1]; PC liposomes, replicate 3): 48.469%
Lysis (%) ([1]; PC:PA liposomes, replicate 1): 63.0445%
Lysis (%) ([1]; PC:PA liposomes, replicate 2): 68.1197%
Lysis (%) ([1]; PC:PA liposomes, replicate 3): 58.6174%
Fraction of total protein (%), bound fraction (Liposome pulldown; PC only liposomes, replicate 1): 23.8871%
Fraction of total protein (%), bound fraction (Liposome pulldown; PC only liposomes, replicate 2): 10.4017%
Fraction of total protein (%), bound fraction (Liposome pulldown; PC only liposomes, replicate 3): 20.2373%
Fraction of total protein (%), Bound (Liposome pulldown; PC only liposomes, replicate 1): 14.047%
Fraction of total protein (%), Bound (Liposome pulldown; PC only liposomes, replicate 2): 12.1176%
Fraction of total protein (%), Bound (Liposome pulldown; PC only liposomes, replicate 3): 23.9918%
Fraction of total protein (%), bound fraction (Liposome pulldown; [5]): 106.585%
Fraction of total protein (%), bound fraction (Liposome pulldown; [6]): 65.0801%
Fraction of total protein (%), bound fraction (Liposome pulldown; [7]): 97.4485%
Fraction of total protein (%), Bound (Liposome pulldown; [5]): 42.5181%
Fraction of total protein (%), Bound (Liposome pulldown; [6]): 53.6354%
Fraction of total protein (%), Bound (Liposome pulldown; [7]): 32.306%

Crocodylus porosus β-defensin 13 (CpoBD13) (from UniProt A0A7G6KN55) H21A
response (% (fraction of total)) ([2]; pH 5.5, parent: est. 88): 69
response (% (fraction of total)) ([2]; pH 7.4, parent: est. 43): 38
response (% (fraction of total)) (PC only liposomes; pH 5.5, parent: est. 20): 15
response (% (fraction of total)) (PC only liposomes; pH 7.4, parent: est. 15): 23

Crocodylus porosus β-defensin 13 (CpoBD13) (from UniProt A0A7G6KN55) H33A
response (% (fraction of total)) ([2]; pH 5.5, parent: est. 88): 78
response (% (fraction of total)) ([2]; pH 7.4, parent: est. 43): 38
response (% (fraction of total)) (PC only liposomes; pH 5.5, parent: est. 20): 20
response (% (fraction of total)) (PC only liposomes; pH 7.4, parent: est. 15): 18

Crocodylus porosus β-defensin 13 (CpoBD13) (from UniProt A0A7G6KN55) H35A
response (% (fraction of total)) ([2]; pH 5.5, parent: est. 88): 90
response (% (fraction of total)) ([2]; pH 7.4, parent: est. 43): 42
response (% (fraction of total)) (PC only liposomes; pH 5.5, parent: est. 20): 18
response (% (fraction of total)) (PC only liposomes; pH 7.4, parent: est. 15): 15

Crocodylus porosus β-defensin 13 (CpoBD13) (from UniProt A0A7G6KN55) R9A
response (% (fraction of total)) ([2]; pH 5.5, parent: est. 88): 80
response (% (fraction of total)) ([2]; pH 7.4, parent: est. 43): 17
response (% (fraction of total)) (PC only liposomes; pH 5.5, parent: est. 20): 34
response (% (fraction of total)) (PC only liposomes; pH 7.4, parent: est. 15): 10

Crocodylus porosus β-defensin 13 (CpoBD13) (from UniProt A0A7G6KN55) R17A
response (% (fraction of total)) ([2]; pH 5.5, parent: est. 88): 87
response (% (fraction of total)) ([2]; pH 7.4, parent: est. 43): 26
response (% (fraction of total)) (PC only liposomes; pH 5.5, parent: est. 20): 22
response (% (fraction of total)) (PC only liposomes; pH 7.4, parent: est. 15): 13

B1: Crocodylus porosus β-defensin 13 (CpoBD13) (peptide, UniProt A0A7G6KN55 22-61, looked up)
chain: NGSYYSTLQCRNNHGHCRRLCFHGEQWIGNCNGRHQHCCK
notes: Crocodylus porosus β-defensin 13, mature defensin domain (nucleotides 142-255 of XM_019537183.1, limits set with SignalP); 114 nucleotides would give 38 residues; Three disulphide bonds; also called wild type CpoBD13; saltwater crocodile defensin; source: Pichia pastoris (pPIC9 vector), purified by cation exchange chromatography
stoichiometry N [3]: 2
stoichiometry N [4]: ≤ 5
